Test results as given in patent US11965039B2, “Compstatin analogues and their medical uses” (priority 2018, dated 2024).
Starred links: 1 amine or outer side, 2 acyl side, 3 side chain; linkers in the order of their positions; H or OH if unused. Positions of bridges follow the written chain, without caps; N, C: chain ends. Non-standard residues stand in square brackets, D forms with d. Residues, ends and D or L forms follow the SMILES beside them. Groups on a side chain read outwards from the residue. *: point of attachment. Trp(1-Me) = Cn1cc(C[C@H](N)C(=O)O)c2ccccc21; C16 diacid = O=C(O)CCCCCCCCCCCCCCC(=O)*; γGlu = O=C(O)[C@H](CCC(=O)[*:2])N[*:1]; AEEA = NCCOCCOCC(=O)O; Sar = CNCC(=O)O

Assays:
[1] = tested on: classical complement pathway; experiment: In vitro haemolysis assay (inhibition of classical complement pathway); format: cell-based, human; details: human serum, sensitized sheep red blood cells; Table 3, given as upper bounds; read-out: IC50, inhibition of hemolysis
Procedure, shortened: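 Compound dilutions preincubated 15 min at room temperature with diluted human serum (titrated per batch for 70-90% maximal haemolysis), then antibody-sensitized sheep RBC (10^7/well) added for 30 min at 37 °C in Tris/casein buffer, pH 7.4. Stopped with EDTA; haemolysis read at 405 nm; IC50 by 4PL fit.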

[2] = Solubility test at 10 mg/mL (visual inspection and light scattering); format: physicochemical; details: for Solubility, Condition 1: Acetate pH 4; for Solubility, Condition 2: Acetate pH 5; for Solubility, Condition 3: Phosphate pH 6; for Solubility, Condition 4: Phosphate pH 7; for Solubility, Condition 5: Phosphate pH 7.5

Compound | IC50 [1] | Solubility, Condition 1 [2] | Solubility, Condition 2 [2] | Solubility, Condition 3 [2] | Solubility, Condition 4 [2] | Solubility, Condition 5 [2]
CC[C@H](C)[C@@H]1NC(=O)[C@@H](NC(=O)[C@H](Cc2ccccc2)NC(=O)[C@H](CCC(=O)O)NC(=O)[C@H](CO)NC(C)=O)CSSC[C@@H](C(=O)N(C)CC(=O)N[C@@H](CCC(=O)O)C(N)=O)NC(=O)[C@H](CCCNC(=N)N)NC(=O)[C@H](Cc2c[nH]cn2)NC(=O)[C@H](CCC(=O)O)NC(=O)CN(C)C(=O)[C@H](Cc2c[nH]c3ccccc23)NC(=O)[C@H](CC(=O)O)NC(=O)[C@H](CCC(N)=O)NC(=O)[C@H](Cc2cn(C)c3ccccc23)NC1=O [Compound 79, Ac-SEFC(1)I[1-Me-Trp]QDW[Sar]EHRC(1)[Sar]E-NH2] (Ac-SEFCI[Trp(1-Me)]QDW[Sar]EHRC[Sar]E-NH2; disulfide 4-14) | < 100 nM | − (“−” denotes lack of solubility at the given condition, as UV absorbance at 340 nm exceeds 0.1 AU and/or it is visibly turbid or contains particles) | − (“−” denotes lack of solubility at the given condition, as UV absorbance at 340 nm exceeds 0.1 AU and/or it is visibly turbid or contains particles) | + (“+” denotes solubility at the given condition, as determined by UV absorbance being less than 0.1 AU at 340 nm and the sample being clear when manually inspected) | + (“+” denotes solubility at the given condition, as determined by UV absorbance being less than 0.1 AU at 340 nm and the sample being clear when manually inspected) | + (“+” denotes solubility at the given condition, as determined by UV absorbance being less than 0.1 AU at 340 nm and the sample being clear when manually inspected)
CC[C@H](C)[C@@H]1NC(=O)[C@@H](NC(=O)[C@H](Cc2ccccc2)NC(=O)[C@H](CCC(=O)O)NC(C)=O)CSSC[C@@H](C(=O)N(C)CC(=O)N[C@@H](CCC(=O)O)C(=O)N[C@@H](C)C(N)=O)NC(=O)[C@H](CCCNC(=N)N)NC(=O)[C@H](Cc2c[nH]cn2)NC(=O)[C@H](CCC(=O)O)NC(=O)CNC(=O)[C@H](Cc2c[nH]c3ccccc23)NC(=O)[C@H](CC(=O)O)NC(=O)[C@H](CCC(N)=O)NC(=O)[C@H](Cc2cn(C)c3ccccc23)NC1=O [Compound 80] (Ac-EFCI[Trp(1-Me)]QDWGEHRC[Sar]EA-NH2; disulfide 3-13) | < 100 nM | − (“−” denotes lack of solubility at the given condition, as UV absorbance at 340 nm exceeds 0.1 AU and/or it is visibly turbid or contains particles) | − (“−” denotes lack of solubility at the given condition, as UV absorbance at 340 nm exceeds 0.1 AU and/or it is visibly turbid or contains particles) | + (“+” denotes solubility at the given condition, as determined by UV absorbance being less than 0.1 AU at 340 nm and the sample being clear when manually inspected) | + (“+” denotes solubility at the given condition, as determined by UV absorbance being less than 0.1 AU at 340 nm and the sample being clear when manually inspected) | + (“+” denotes solubility at the given condition, as determined by UV absorbance being less than 0.1 AU at 340 nm and the sample being clear when manually inspected)
CC[C@H](C)[C@@H]1NC(=O)[C@@H](NC(=O)CN(C)C(=O)[C@H](CCC(=O)O)NC(=O)[C@H](CO)NC(C)=O)CSSC[C@@H](C(=O)N(C)CC(=O)N[C@@H](CCC(=O)O)C(=O)N[C@@H](C)C(N)=O)NC(=O)[C@H](CCCNC(=N)N)NC(=O)[C@H](Cc2c[nH]cn2)NC(=O)[C@H](CCC(=O)O)NC(=O)CNC(=O)[C@H](Cc2c[nH]c3ccccc23)NC(=O)[C@H](CC(=O)O)NC(=O)[C@H](CCC(N)=O)NC(=O)[C@H](Cc2cn(C)c3ccccc23)NC1=O [Compound 81] (Ac-SE[Sar]CI[Trp(1-Me)]QDWGEHRC[Sar]EA-NH2; disulfide 4-14) | < 100 nM | − (“−” denotes lack of solubility at the given condition, as UV absorbance at 340 nm exceeds 0.1 AU and/or it is visibly turbid or contains particles) | − (“−” denotes lack of solubility at the given condition, as UV absorbance at 340 nm exceeds 0.1 AU and/or it is visibly turbid or contains particles) | + (“+” denotes solubility at the given condition, as determined by UV absorbance being less than 0.1 AU at 340 nm and the sample being clear when manually inspected) | + (“+” denotes solubility at the given condition, as determined by UV absorbance being less than 0.1 AU at 340 nm and the sample being clear when manually inspected) | + (“+” denotes solubility at the given condition, as determined by UV absorbance being less than 0.1 AU at 340 nm and the sample being clear when manually inspected)
CC[C@H](C)[C@@H]1NC(=O)[C@@H](NC(=O)[C@H](Cc2ccccc2)NC(C)=O)CSSC[C@@H](C(=O)N[C@H](C(=O)NCC(=O)N[C@@H](C)C(=O)N[C@@H](CCC(=O)O)C(=O)N[C@@H](CO)C(=O)N[C@@H](CCCCNC(=O)COCCOCCNC(=O)COCCOCCNC(=O)CC[C@H](NC(=O)CCCCCCCCCCCCCCC(=O)O)C(=O)O)C(N)=O)[C@@H](C)O)NC(=O)[C@H](CCCNC(=N)N)NC(=O)[C@H](Cc2c[nH]cn2)NC(=O)[C@H](CCC(=O)O)NC(=O)CNC(=O)[C@H](Cc2c[nH]c3ccccc23)NC(=O)[C@H](CC(=O)O)NC(=O)[C@H](CCC(N)=O)NC(=O)[C@H](Cc2cn(C)c3ccccc23)NC1=O [Compound 102] (Ac-FCI[Trp(1-Me)]QDWGEHRCTGAESK([AEEA-AEEA-γGlu-C16 diacid])-NH2; disulfide 2-12) | < 100 nM | − (“−” denotes lack of solubility at the given condition, as UV absorbance at 340 nm exceeds 0.1 AU and/or it is visibly turbid or contains particles) | + (“+” denotes solubility at the given condition, as determined by UV absorbance being less than 0.1 AU at 340 nm and the sample being clear when manually inspected) | + (“+” denotes solubility at the given condition, as determined by UV absorbance being less than 0.1 AU at 340 nm and the sample being clear when manually inspected) | + (“+” denotes solubility at the given condition, as determined by UV absorbance being less than 0.1 AU at 340 nm and the sample being clear when manually inspected) | + (“+” denotes solubility at the given condition, as determined by UV absorbance being less than 0.1 AU at 340 nm and the sample being clear when manually inspected)
CC[C@H](C)[C@@H]1NC(=O)[C@@H](NC(=O)[C@H](Cc2ccc(O)cc2)NC(=O)[C@H](C)NC(=O)[C@H](CO)NC(=O)CNC(=O)[C@H](CCC(=O)O)NC(C)=O)CSSC[C@@H](C(=O)N(C)CC(=O)N[C@@H](CCC(=O)O)C(N)=O)NC(=O)[C@H](CCCCNC(=O)COCCOCCNC(=O)COCCOCCNC(=O)CC[C@H](NC(=O)CCCCCCCCCCCCCCC(=O)O)C(=O)O)NC(=O)[C@H](Cc2c[nH]cn2)NC(=O)[C@H](CCC(=O)O)NC(=O)CNC(=O)[C@H](Cc2c[nH]c3ccccc23)NC(=O)[C@H](CC(=O)O)NC(=O)[C@H](CCC(N)=O)NC(=O)[C@H](Cc2cn(C)c3ccccc23)NC1=O [Compound 103, Ac-EGSAYC(1)I[1-Me-Trp]QDWGEH-[K([15-carboxy-pentadecanoyl][γGlu][Peg3][Peg3])]-C(1)[Sar]E-NH2] (Ac-EGSAYCI[Trp(1-Me)]QDWGEHK([AEEA-AEEA-γGlu-C16 diacid])C[Sar]E-NH2; disulfide 6-16) | < 100 nM | − (“−” denotes lack of solubility at the given condition, as UV absorbance at 340 nm exceeds 0.1 AU and/or it is visibly turbid or contains particles) | + (“+” denotes solubility at the given condition, as determined by UV absorbance being less than 0.1 AU at 340 nm and the sample being clear when manually inspected) | + (“+” denotes solubility at the given condition, as determined by UV absorbance being less than 0.1 AU at 340 nm and the sample being clear when manually inspected) | + (“+” denotes solubility at the given condition, as determined by UV absorbance being less than 0.1 AU at 340 nm and the sample being clear when manually inspected) | + (“+” denotes solubility at the given condition, as determined by UV absorbance being less than 0.1 AU at 340 nm and the sample being clear when manually inspected)
CC[C@H](C)[C@@H]1NC(=O)[C@@H](NC(=O)[C@H](Cc2ccc(O)cc2)NC(=O)[C@H](CCC(=O)O)NC(=O)[C@H](CO)NC(=O)CNC(=O)[C@H](CCC(=O)O)NC(=O)CCCCCCCCCCCCCCC(=O)O)CSSC[C@@H](C(=O)N(C)CC(=O)N[C@@H](CCC(=O)O)C(N)=O)NC(=O)[C@H](CCCNC(=N)N)NC(=O)[C@H](Cc2c[nH]cn2)NC(=O)[C@H](CCC(=O)O)NC(=O)CNC(=O)[C@H](Cc2c[nH]c3ccccc23)NC(=O)[C@H](CC(=O)O)NC(=O)[C@H](CCC(N)=O)NC(=O)[C@H](Cc2cn(C)c3ccccc23)NC1=O [Compound 107] ({C16 diacid}-EGSEYCI[Trp(1-Me)]QDWGEHRC[Sar]E-NH2; disulfide 6-16) | < 100 nM | − (“−” denotes lack of solubility at the given condition, as UV absorbance at 340 nm exceeds 0.1 AU and/or it is visibly turbid or contains particles) | − (“−” denotes lack of solubility at the given condition, as UV absorbance at 340 nm exceeds 0.1 AU and/or it is visibly turbid or contains particles) | + (“+” denotes solubility at the given condition, as determined by UV absorbance being less than 0.1 AU at 340 nm and the sample being clear when manually inspected) | + (“+” denotes solubility at the given condition, as determined by UV absorbance being less than 0.1 AU at 340 nm and the sample being clear when manually inspected) | + (“+” denotes solubility at the given condition, as determined by UV absorbance being less than 0.1 AU at 340 nm and the sample being clear when manually inspected)
